Tested on: virus CPE inhibition assay, host cell viability
Test: dose response, CPE inhibition, cell viability (AID 2310)
[1] = measured here: HTS CPE inhibition EC50
[2] = measured here: HTS cell viability IC50
[3] = measured here: cytotoxicity, cell viability IC50

O=C1NC2=C(CCc3ccccc32)C(c2ccc3c(c2)OCO3)N1 (stereo unspecified)
EC50: 0.39 µM | EC50 [1]: > 20 µM | CC50 [2]: 17.5 µM | CC50 [3]: 29.6 µM

O=C(Nc1c(-c2ccccc2)nc2sccn12)c1ccccc1
EC50: 0.634 µM | EC50 [1]: 0.634 µM | CC50 [2]: > 60 µM | CC50 [3]: > 60 µM

Cc1cccc(C2NC(=O)NC3=C2CCc2ccccc23)c1 (stereo unspecified)
EC50: 0.7 µM | EC50 [1]: 0.908 µM | CC50 [2]: > 20 µM | CC50 [3]: > 50 µM

COc1ccc(-c2nc(=O)[nH]c3c2CCc2ccccc2-3)cc1
EC50: 0.96 µM | EC50 [1]: 1.1 µM | CC50 [2]: > 20 µM | CC50 [3]: > 50 µM

— PubChem BioAssay AID2310 (SRMLSC, 2010)
